Assay results as given in ChEMBL document CHEMBL1201862, “PubChem BioAssay data set” (2004).
Calls of active or inactive are those of the source.

Legend:
[1] = cells; type: functional, cell-based
[2] = cells; type: functional, cell-based; remark: listed apart in the source
[3] = target: Prothrombin (Homo sapiens, UniProt P00734); test: Thrombin 1536 HTS Dose Response Confirmation. [Related pubchem assays: 1046 (Thrombin 1536 HTS; hits were confirmed in this assay)]; type: functional
[4] = target: T1, DNA repair protein RAD52 homolog (Homo sapiens, UniProt P43351); type: functional, biochemical
T1 sequence (P43351 whole entry): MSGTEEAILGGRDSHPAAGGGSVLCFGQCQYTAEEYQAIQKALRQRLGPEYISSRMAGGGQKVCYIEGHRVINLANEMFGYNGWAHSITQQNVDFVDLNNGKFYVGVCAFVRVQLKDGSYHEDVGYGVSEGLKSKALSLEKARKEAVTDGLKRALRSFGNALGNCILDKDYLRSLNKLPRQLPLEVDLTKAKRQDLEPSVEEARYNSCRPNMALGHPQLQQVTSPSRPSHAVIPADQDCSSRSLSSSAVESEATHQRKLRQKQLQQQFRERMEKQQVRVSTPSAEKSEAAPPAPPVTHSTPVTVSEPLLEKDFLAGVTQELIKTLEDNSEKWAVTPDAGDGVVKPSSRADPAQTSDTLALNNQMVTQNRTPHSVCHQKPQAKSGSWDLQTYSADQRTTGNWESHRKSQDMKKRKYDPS

[5] = HEK293 cell cytotoxicity, dose response, cytotoxicity control, plate reader, cherry-picked samples (AID 743446); type: functional, cell-based
[6] = A549 cell cytotoxicity, dose response, cytotoxicity control, plate reader, cherry-pick, antagonist series (AID 743412); type: functional, cell-based
[7] = HepG2 cell cytotoxicity, dose response, cytotoxicity control, plate reader, cherry-pick, antagonist series (AID 743416); type: functional, cell-based
[8] = growth suppression of beta-catenin-knockout colon cells, dose response, cell-based, HCT116, human colon tumor (AID 1045); type: functional;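 further: HCT116 colon tumor cells with beta catenin knocked out; cells exposed to compound for 60 hours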
[9] = growth suppression of PTEN-null colon cells, dose response, cell-based, HCT116 PTEN knockout (AID 1047); type: functional;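 further: HCT116 colon tumor cells with PTEN knocked out; cells exposed to compound for 60 hours before readout; potency for loss of cell viability measured by luminescence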
[10] = system: Vero; test: cells; type: functional; conditions: Chlorocebus sabaeus
[11] = Luminescence Cell-Based Dose Retest to Confirm Inhibitors of Cancer Stem Cells. [Related pubchem assays (depositor defined):AID2717, AID2721]; type: functional; conditions: Homo sapiens
[12] = off-target signal loss in HeLa-CEM21 co-culture – HeLa F-luc CTL cells, cherry-picked, counter-screen for HIV-1 Env fusion inhibitor project, dose response (AID 652040); type: functional, cell-based;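 further: potency for signal decrease marking cytotoxic or nonspecific inhibition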
[13] = inhibitors of HIV Env-driven cell fusion, dose response, cherry-pick (AID 652057); type: functional, cell-based
[14] = inhibitors of clade B AD8 Env fusion, dose response, cell-based, cherry-pick (AID 652062); type: functional;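 further: luciferase signal from cell-cell fusion driven by HIV-1 clade B AD8 Env; potency is for inhibitors of fusion seen as a drop in luminescence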
[15] = inhibitors of intracellular T. cruzi replication, confirmation, NIH3T3 host cells, beta-gal luminescence (AID 2044); type: functional, cell-based;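 further: intracellular parasites grown in NIH/3T3 mouse fibroblasts as host cells; luminescent beta-galactosidase reporter signal from transgenic T. cruzi replicating inside host cells; inhibitors lower the luminescence signal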
[16] = system: Streptococcus; test: Group A Streptococcus viability loss, dose response, counter-screen for streptokinase expression inhibitor project, luminescence, BacTiterGlo (AID 1915); type: functional, organism-based;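 further: potency for reduction of bacterial viability or growth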
[17] = system: Streptococcus sp. 'group A'; test: growth inhibition of control SK(-) GAS strain, dose response, counter-screen for streptokinase expression inhibitor project, luminescence, kanamycin, BacTiterGlo, confirmation (AID 1900); type: functional, organism-based
[18] = cytotoxicity toward NIH3T3 fibroblasts, dose response, counter-screen, cell-based, ATP luminescence, mouse fibroblasts (AID 2010); type: functional;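 further: cells exposed to compound for about 90 hours before reading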
[19] = target: Large T antigen (Simian virus 40, UniProt P03070); type: functional, Betapolyomavirus macacae;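 further: Confirmatory-stage PubChem screen for compounds that inhibit SV40 T antigen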
Sequence of Large T antigen (P03070 whole entry): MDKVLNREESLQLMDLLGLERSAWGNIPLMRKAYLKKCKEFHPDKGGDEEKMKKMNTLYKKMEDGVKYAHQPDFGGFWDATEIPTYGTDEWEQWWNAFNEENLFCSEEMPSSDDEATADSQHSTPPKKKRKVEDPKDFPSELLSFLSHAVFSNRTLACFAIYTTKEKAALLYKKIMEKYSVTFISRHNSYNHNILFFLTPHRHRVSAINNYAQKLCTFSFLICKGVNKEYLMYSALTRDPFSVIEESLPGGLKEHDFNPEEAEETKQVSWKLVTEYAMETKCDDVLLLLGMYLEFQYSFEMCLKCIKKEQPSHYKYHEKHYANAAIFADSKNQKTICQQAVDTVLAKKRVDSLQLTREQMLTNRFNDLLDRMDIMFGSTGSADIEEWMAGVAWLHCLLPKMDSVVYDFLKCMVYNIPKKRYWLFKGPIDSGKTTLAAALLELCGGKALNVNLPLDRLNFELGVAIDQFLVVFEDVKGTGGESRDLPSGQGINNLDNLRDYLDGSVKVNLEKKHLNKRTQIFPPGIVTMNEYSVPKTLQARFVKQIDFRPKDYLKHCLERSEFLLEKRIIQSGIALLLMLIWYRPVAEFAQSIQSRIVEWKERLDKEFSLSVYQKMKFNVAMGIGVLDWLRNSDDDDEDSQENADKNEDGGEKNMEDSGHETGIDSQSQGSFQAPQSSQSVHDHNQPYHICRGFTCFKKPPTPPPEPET

[20] = target: FAD-linked sulfhydryl oxidase ALR (Homo sapiens, UniProt P55789); test: inhibitors of human ALR sulfhydryl oxidase, dose response, biochemical, H2O2 detection, luminescence, cherry-pick (AID 493248)
Sequence of FAD-linked sulfhydryl oxidase ALR (P55789 whole entry): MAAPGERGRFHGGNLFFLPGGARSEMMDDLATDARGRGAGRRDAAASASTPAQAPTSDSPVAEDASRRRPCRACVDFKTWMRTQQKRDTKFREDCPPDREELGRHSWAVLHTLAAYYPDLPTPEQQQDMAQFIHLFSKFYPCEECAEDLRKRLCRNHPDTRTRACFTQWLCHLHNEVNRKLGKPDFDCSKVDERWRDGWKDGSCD

[21] = Counterscreen for inhibitors of Trypanosoma brucei methionyl tRNA synthetase (MetRS): Luminescence-based cell-based high throughput dose response assay to identify compounds that are cytotoxic to Jurkat human T lymphocyte cells.; type: functional
[22] = target: T2, Methionyl-tRNA synthetase, putative (Trypanosoma brucei brucei, UniProt Q38C91); type: functional, Trypanosoma brucei brucei strain 927/4 GUTat10.1
T2 sequence (Q38C91 whole entry): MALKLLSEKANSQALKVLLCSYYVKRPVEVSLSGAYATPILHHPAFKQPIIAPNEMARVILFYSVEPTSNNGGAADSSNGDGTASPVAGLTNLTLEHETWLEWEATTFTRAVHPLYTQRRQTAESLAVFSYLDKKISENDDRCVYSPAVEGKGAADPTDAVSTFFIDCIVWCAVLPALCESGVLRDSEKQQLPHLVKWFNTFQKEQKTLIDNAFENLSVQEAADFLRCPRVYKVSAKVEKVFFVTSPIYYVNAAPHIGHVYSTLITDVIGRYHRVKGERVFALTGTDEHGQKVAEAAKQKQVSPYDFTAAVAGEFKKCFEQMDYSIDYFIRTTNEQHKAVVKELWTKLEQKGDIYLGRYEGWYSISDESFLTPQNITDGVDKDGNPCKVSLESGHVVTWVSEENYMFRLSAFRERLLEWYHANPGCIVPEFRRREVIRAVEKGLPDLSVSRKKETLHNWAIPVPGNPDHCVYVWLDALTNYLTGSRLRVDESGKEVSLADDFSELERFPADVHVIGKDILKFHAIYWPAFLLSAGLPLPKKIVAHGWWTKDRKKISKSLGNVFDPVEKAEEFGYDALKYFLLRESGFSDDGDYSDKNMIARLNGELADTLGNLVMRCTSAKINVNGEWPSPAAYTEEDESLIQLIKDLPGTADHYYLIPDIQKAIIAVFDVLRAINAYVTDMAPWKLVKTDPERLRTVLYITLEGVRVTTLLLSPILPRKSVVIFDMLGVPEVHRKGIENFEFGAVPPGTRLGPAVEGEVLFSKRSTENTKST

[23] = target: T2, Methionyl-tRNA synthetase, putative; type: functional, Trypanosoma brucei brucei strain 927/4 GUTat10.1; remark: listed apart in the source
[24] = ZM109 Env clade C HIV-1 fusion inhibitors, dose response, HeLa effector, CEM target cells, luciferase, cherry-pick (AID 652058); type: functional, cell-based
[25] = system: H4; test: Luminescence Cell-Based Dose Response HTS to Identify Activators of 5'UTR Stem-Loop Driven Prion Protein mRNA Translation in H4 Neuroglioblastoma Cells. [Related pubchem assays: 1829 (Project Summary), 1814 (Primary HTS)]; type: functional; conditions: Homo sapiens
[26] = Luminescence Cell-Based Dose Confirmation HTS to Identify Activators of 5'UTR Stem-Loop Driven Alpha-Synuclein mRNA Translation in H4 Neuroglioblastoma Cells. [Related pubchem assays: 1829 (Project Summary), 1814 (Primary HTS)]; type: functional
[27] = Luminescence Cell-Based Dose Response HTS to Identify Activators of Luciferase Translation or Activity in H4 […] Cells. [Related pubchem assays: 1829 (Project Summary), 1814 (Primary HTS)]; type: functional

CC(Cc1ccccc1)NC(=O)/C=C/C(=O)O (stereo not given)
IC50 [1]: > 29.9 µM (inactive) | EC50 [2]: > 29.9 µM (inactive)

Cc1cc(C(=O)CSc2nnnn2C)c(C)n1-c1cccc(F)c1
IC50 [3]: > 50 µM (not active)

NCc1cc2c3c(c1)CCCN3CCC2
AC50 [4]: 1.92 µM (active)

COc1ccccc1NC(=O)N1CCCC1C(=O)NC1CCCCC1 (stereo not given)
IC50 [3]: > 50 µM (not active)

COc1ccccc1N1CCN(C(=O)c2sc3nc(-c4ccc(F)cc4)cn3c2C)CC1
AC50 [5]: 37.1 µM (active) | AC50 [6]: > 52 µM (inactive) | AC50 [7]: 43.3 µM (active)

Cc1cc2nc(-c3ccc(SCC(=O)Nc4nccs4)nc3)[nH]c2cc1C
EC50 [8]: 33.3 µM (active) | EC50 [9]: 19.6 µM (active)

COc1ccc(C)cc1N1C(=O)C(c2ccccc2)C(c2nc3ccccc3s2)=C1N (stereo not given)
EC50 [8]: 2.48 µM (active) | CC50 [10]: 6.15 µM (active) | EC50 [9]: 3.06 µM (active) | AC50 [11]: 4.88 µM (active)

CCN(CC)CCCNC(=O)c1csc(Nc2cccc3ccccc23)n1
AC50 [4]: 21.9 µM (active)

CC(C)N(Cc1nc(-c2ccccc2)no1)C(=O)CN(C)S(=O)(=O)c1ccc(Br)cc1
AC50 [12]: 60.4 µM (active) | AC50 [13]: 49.9 µM (active) | AC50 [14]: 20.1 µM (active)

O=C(CNC(=O)OCc1ccccc1)Nc1ccc(Br)cc1C(=O)c1ccccc1Cl
EC50 [8]: 45.4 µM (active) | EC50 [9]: 44.5 µM (active)

COc1ccccc1/C=C/c1ccc2cccc(O)c2n1
EC50 [15]: 2.74 µM (active) | CC50 [10]: > 25 µM (active) | EC50 [16]: 6 µM (active) | EC50 [17]: 1.52 µM (active) | EC50 [18]: > 60 µM (not active)

NC(=O)Nc1ccc(Nc2ccccc2)cc1
IC50 [19]: 7.83 µM (active) | AC50 [20]: 0.916 µM (active)

C#CCSc1nncn1C(=O)/C=C/c1ccccc1
IC50 [3]: 0.294 µM (active)

CC(C)(C)[C@H]1C=C(C(=O)NCc2nc3ccccc3[nH]2)O[C@@H](OCCCCO)C1
IC50 [21]: 83.3 µM (inactive) | IC50 [22]: 6.66 µM (active) | IC50 [23]: 2.63 µM (active)

COc1ccc(C2C=C(c3ccc(Br)cc3)Nc3nc(N4C(=O)CCC4=O)nn32)cc1 (stereo not given)
IC50 [3]: > 50 µM (not active)

O=C(Nc1ccc(O)cc1)c1ccc(NC(=O)C2CCCO2)cc1 (stereo not given)
IC50 [19]: 11.1 µM (active)

O=C(Nc1ccc(CN2CCS(=O)(=O)CC2)cc1)c1ccc(C(F)(F)F)cc1
AC50 [12]: > 70 µM (inactive) | AC50 [14]: 3.22 µM (active)

CSCc1nc2scc(-c3ccccc3)c2c(=O)[nH]1
IC50 [3]: > 50 µM (not active)

Cc1cc(C(=O)COc2cccc(-n3cnnn3)c2)c(C)n1-c1ccccc1
EC50 [8]: 77.4 µM (active) | EC50 [9]: 48.3 µM (active)

Cc1ccc(CNC(=O)CSc2n[nH]c3c4cc(F)ccc4nc-3n2)cc1
IC50 [21]: 83.3 µM (inactive) | IC50 [22]: 119 µM (inactive) | IC50 [23]: 0.785 µM (active)

CCN1C(=O)C(CC(=O)Nc2ccc(OC)cc2)N(CCc2ccc(F)cc2)C1=S (stereo not given)
IC50 [21]: 61.1 µM (inactive) | IC50 [22]: 11.4 µM (inactive) | IC50 [23]: 6.2 µM (active)

Cc1ccccc1CCN(C(=O)c1csnn1)C(C(=O)NC1CCCC1)c1ccncc1 (stereo not given)
AC50 [12]: 1.13 µM (active) | AC50 [13]: 0.548 µM (active) | AC50 [14]: < 0.26 µM (active) | AC50 [24]: 0.742 µM (active)

O=C(CNC(=O)c1ccccc1F)OCC(=O)c1c[nH]c2ccccc12
IC50 [1]: > 29.9 µM (inactive) | EC50 [2]: > 29.9 µM (inactive)

OC(c1cc(F)cc(Cl)c1)c1nc(-c2ccc(Cl)cc2)c[nH]1 (stereo not given)
IC50 [21]: 56.3 µM (inactive) | IC50 [22]: 15 µM (inactive) | IC50 [23]: 6.73 µM (active)

Sc1nnc(COc2ccccc2)n1/N=C/C(Cl)=C/c1ccccc1
CC50 [10]: > 25 µM (active) | EC50 [25]: > 120 µM (not active) | EC50 [26]: 6.85 µM (active) | EC50 [27]: 12.6 µM (active) | AC50 [11]: 2.32 µM (active)

CC1CCN(S(=O)(=O)c2cc(C(=O)N3CCN(c4ccccc4)CC3)ccc2Br)CC1
AC50 [13]: 40.3 µM (active) | AC50 [14]: 4.92 µM (active) | AC50 [24]: 3.22 µM (active)

CC(C)CC#Cc1ccc2c(c1)O[C@@H](CN(C)S(=O)(=O)c1cccc(F)c1)[C@@H](C)CN([C@@H](C)CO)S2(=O)=O
AC50 [13]: 7.21 µM (active) | AC50 [14]: 11.6 µM (active) | AC50 [24]: 8.81 µM (active)

C[C@H](CO)N1C[C@H](C)[C@H](CN(C)S(=O)(=O)c2ccccc2F)Oc2ncc(/C=C/c3ccccc3)cc2C1=O
AC50 [13]: 3.51 µM (active) | AC50 [14]: 10.1 µM (active) | AC50 [24]: 10.2 µM (active)

COc1cccc(S(=O)(=O)N(C)C[C@@H]2Oc3cc(C#CCC(C)C)ccc3S(=O)(=O)N([C@@H](C)CO)C[C@@H]2C)c1
AC50 [13]: 20 µM (active) | AC50 [14]: 25.7 µM (active) | AC50 [24]: 46.1 µM (active)

N=C(N)N/N=C/c1ccc(OCc2ccccc2Cl)cc1
AC50 [4]: 16.6 µM (active) | EC50 [8]: 4.04 µM (active) | EC50 [15]: 0.539 µM (active) | EC50 [9]: 4.14 µM (active) | EC50 [18]: > 60 µM (not active)
